Measurements published in ChEMBL document CHEMBL1201862, “PubChem BioAssay data set” (2004).
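These data come from cells grown in 96-well plates and exposed to compound for 48 hours at five concentrations. GI50 is the concentration that inhibits growth by half.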 Calls of active or inactive are those of the source. No stated cut-off is given here; in the data, active = GI50 up to about 1.1 µM and inactive = higher.

Columns and labels:
Assay in all cases: inhibition of tumour cell growth, NCI panel, 48 h
LOX IMVI = system: LOX IMVI
U-251 = system: U-251
NCI/ADR-RES = system: NCI/ADR-RES
SR = system: SR
NCI-H460 = system: NCI-H460
Malme-3M = system: Malme-3M
Hs-578T = system: Hs-578T
ACHN = system: ACHN
CAKI-1 = system: CAKI-1
786-0 = system: 786-0
HL-60 = system: HL-60
NCI-H226 = system: NCI-H226
MDA-MB-231 = system: MDA-MB-231
MDA-N = system: MDA-N
HCT-15 = system: HCT-15
SNB-75 = system: SNB-75
RPMI-8226 = system: RPMI-8226
SK-MEL-5 = system: SK-MEL-5
A498 = system: A498
T47D = system: T47D

Compound | GI50 (LOX IMVI) | GI50 (U-251) | GI50 (NCI/ADR-RES) | GI50 (SR) | GI50 (NCI-H460) | GI50 (Malme-3M) | GI50 (Hs-578T) | GI50 (ACHN) | GI50 (CAKI-1) | GI50 (786-0) | GI50 (HL-60) | GI50 (NCI-H226) | GI50 (MDA-MB-231) | GI50 (MDA-N) | GI50 (HCT-15) [µM] | GI50 (SNB-75) | GI50 (RPMI-8226) | GI50 (SK-MEL-5) | GI50 (A498) | GI50 (T47D)
O=C(CNc1c(Cl)cccc1Cl)NC1C=Cc2ccc(S(=O)(=O)Nc3c(Cl)cccc3Cl)cc2C1=O (configuration not stated) | 88.7 µM (inactive) | > 100 µM (inactive) | > 100 µM (inactive) | > 100 µM (inactive) | > 100 µM (inactive) | > 100 µM (inactive) | 6.71 µM (inactive) | > 100 µM (inactive) | 47.5 µM (inactive) | > 100 µM (inactive) | 75.2 µM (inactive) | 17.5 µM (inactive) | 51.3 µM (inactive) | > 100 µM (inactive) | 79.1 | 16.7 µM (inactive) | > 100 µM (inactive) |  |  | 
CN(C)CCOC1(Cc2ccc(Cl)cc2Cl)CCC(C(C)(C)C)CC1 (configuration not stated) | 1.44 µM (inactive) | 1.46 µM (inactive) | 2.3 µM (inactive) | 2.52 µM (inactive) | 1.66 µM (inactive) | 2.25 µM (inactive) | 1.97 µM (inactive) | 2.99 µM (inactive) | 2.25 µM (inactive) | 1.83 µM (inactive) |  |  | 7 µM (inactive) | 1.81 µM (inactive) | 1.85 | 1.67 µM (inactive) | 2.16 µM (inactive) | 1.56 µM (inactive) | 2.88 µM (inactive) | 
O=C(Nc1ccc2[nH]c(C(=O)N3CC(CCl)c4c3cc([N+](=O)[O-])c3ccccc43)cc2c1)Nc1ccc2[nH]c(C(=O)N3CC(CCl)c4c3cc([N+](=O)[O-])c3ccccc43)cc2c1 (configuration not stated) |  | > 100 µM (inactive) | > 100 µM (inactive) |  | > 100 µM (inactive) | > 100 µM (inactive) |  | > 100 µM (inactive) | > 100 µM (inactive) | > 100 µM (inactive) |  | > 100 µM (inactive) | 27.5 µM (inactive) | > 100 µM (inactive) | > 100 | > 100 µM (inactive) | 85.7 µM (inactive) | > 100 µM (inactive) | > 100 µM (inactive) | > 100 µM (inactive)
C[C@@H]1C(=O)O[C@H]1[C@H](O)CO | > 100 µM (inactive) | > 100 µM (inactive) | > 100 µM (inactive) |  | > 100 µM (inactive) |  |  | > 100 µM (inactive) | > 100 µM (inactive) | > 100 µM (inactive) | > 100 µM (inactive) |  |  | > 100 µM (inactive) | > 100 | > 100 µM (inactive) | 94.2 µM (inactive) | > 100 µM (inactive) | > 100 µM (inactive) | > 100 µM (inactive)
N#Cc1nnc2ccccc2c1N | > 100 µM (inactive) | > 100 µM (inactive) | > 100 µM (inactive) | > 100 µM (inactive) | > 100 µM (inactive) | > 100 µM (inactive) |  | > 100 µM (inactive) | > 100 µM (inactive) | > 100 µM (inactive) |  | > 100 µM (inactive) | > 100 µM (inactive) |  | > 100 |  | > 100 µM (inactive) | > 100 µM (inactive) |  | > 100 µM (inactive)
COc1ccccc1OCc1nnc(SCC(=O)O)n1-c1ccccc1 | > 100 µM (inactive) | > 100 µM (inactive) |  | > 100 µM (inactive) | > 100 µM (inactive) | > 100 µM (inactive) |  | > 100 µM (inactive) |  | > 100 µM (inactive) | > 100 µM (inactive) | > 100 µM (inactive) |  |  | > 100 | > 100 µM (inactive) | > 100 µM (inactive) | > 100 µM (inactive) | > 100 µM (inactive) | 
CN/N=C(/CC(=O)c1sc(NNC(C)=O)nc1C)C(=O)Nc1ccc(OC)cc1OC | > 100 µM (inactive) | > 100 µM (inactive) |  | > 100 µM (inactive) | > 100 µM (inactive) | > 100 µM (inactive) |  | > 100 µM (inactive) | > 100 µM (inactive) | > 100 µM (inactive) | > 100 µM (inactive) | > 100 µM (inactive) |  |  | > 100 |  | > 100 µM (inactive) | > 100 µM (inactive) | > 100 µM (inactive) | 
O=C1c2ccc3c4ccccc4n(Cc4ccccc4)c3c2C(=O)N1c1ccccc1 | 16.2 µM (inactive) | 15.8 µM (inactive) |  | 5.61 µM (inactive) | 58.7 µM (inactive) | 16.2 µM (inactive) |  | > 35.7 µM (inactive) | 12.5 µM (inactive) | 13.8 µM (inactive) | 4.51 µM (inactive) | 12.8 µM (inactive) |  |  | 10.8 | 13.8 µM (inactive) | 9.02 µM (inactive) | 16.1 µM (inactive) | 25.1 µM (inactive) | 
CCOC(CI)O[C@@H]1C=C[C@H](OC(C)=O)C1 (some centres not stated) |  | > 100 µM (inactive) | > 100 µM (inactive) |  | > 100 µM (inactive) | > 100 µM (inactive) |  | > 100 µM (inactive) | 60.7 µM (inactive) | > 100 µM (inactive) |  | > 100 µM (inactive) | > 100 µM (inactive) | > 100 µM (inactive) | > 100 | > 100 µM (inactive) | > 100 µM (inactive) |  | > 100 µM (inactive) | > 100 µM (inactive)
CC(=O)OCC1OC(c2nnc(C)o2)=CC(OC(C)=O)C1OC(C)=O (configuration not stated) | > 100 µM (inactive) | > 100 µM (inactive) | > 100 µM (inactive) | > 100 µM (inactive) | > 100 µM (inactive) | > 100 µM (inactive) | > 100 µM (inactive) | > 100 µM (inactive) | > 100 µM (inactive) | > 100 µM (inactive) | > 100 µM (inactive) | > 100 µM (inactive) | > 100 µM (inactive) | > 100 µM (inactive) |  | > 100 µM (inactive) | > 100 µM (inactive) | > 100 µM (inactive) | > 100 µM (inactive) | 
CC(C)(C)N/C(N)=N/C#N | > 100 µM (inactive) | > 100 µM (inactive) | > 100 µM (inactive) | > 100 µM (inactive) | > 100 µM (inactive) | > 100 µM (inactive) | > 100 µM (inactive) | > 100 µM (inactive) | > 100 µM (inactive) | > 100 µM (inactive) | > 100 µM (inactive) |  | > 100 µM (inactive) | > 100 µM (inactive) | > 100 | > 100 µM (inactive) | > 100 µM (inactive) | > 100 µM (inactive) |  | 
COc1ccc(/C=C2\S/C(=N/Nc3nc(-c4ccccc4)cs3)NC2=O)cc1OC | 23.3 µM (inactive) | 26.3 µM (inactive) | 20.7 µM (inactive) |  | 23 µM (inactive) |  | 24.6 µM (inactive) | 24.7 µM (inactive) | 31.8 µM (inactive) | 28.4 µM (inactive) | 6 µM (inactive) |  | 21.9 µM (inactive) | 15.4 µM (inactive) | 21.5 | 22.8 µM (inactive) |  | 15.5 µM (inactive) |  | 
COc1ccc2nc3ccccc3c(NCCCCN(C)CCCl)c2c1 | 0.0335 µM (active) | 0.0344 µM (active) | 0.0611 µM (active) | < 0.01 µM (active) | 0.014 µM (active) | 0.33 µM (active) |  | < 0.0174 µM (active) | 0.0284 µM (active) | 0.0177 µM (active) | 0.0188 µM (active) | 0.0692 µM (active) | 0.144 µM (active) |  | 0.0185 | 0.122 µM (active) | < 0.01 µM (active) | 0.0773 µM (active) | 0.0435 µM (active) | 
COC(=O)C(C(=O)C(=O)Nc1cccc([N+](=O)[O-])c1)c1nc2ccc([N+](=O)[O-])cc2nc1O (configuration not stated) | > 100 µM (inactive) | > 100 µM (inactive) |  | > 100 µM (inactive) | > 100 µM (inactive) | > 100 µM (inactive) |  | > 100 µM (inactive) | > 100 µM (inactive) | > 100 µM (inactive) | > 100 µM (inactive) | > 100 µM (inactive) |  |  | > 100 | 70.6 µM (inactive) |  | > 100 µM (inactive) | > 100 µM (inactive) | 
C/C(COc1ccccc1)=N\NC(N)=S | > 100 µM (inactive) | > 100 µM (inactive) |  | > 100 µM (inactive) | > 10 µM (inactive) | > 100 µM (inactive) |  | > 100 µM (inactive) | > 100 µM (inactive) | > 100 µM (inactive) | > 100 µM (inactive) | > 100 µM (inactive) |  |  | > 100 | > 100 µM (inactive) | > 100 µM (inactive) | 91.4 µM (inactive) | > 100 µM (inactive) | 
COc1cc([C@@H]2OCC3C(c4ccc5c(c4)OCO5)OCC32)cc(OC)c1OC (some centres not stated) | > 100 µM (inactive) | > 100 µM (inactive) |  | 91.6 µM (inactive) | > 100 µM (inactive) | > 100 µM (inactive) |  | > 100 µM (inactive) | > 100 µM (inactive) | > 100 µM (inactive) | > 100 µM (inactive) | 41.3 µM (inactive) |  |  | > 100 | 4.33 µM (inactive) | 98.9 µM (inactive) |  | > 100 µM (inactive) | 
C[N+](C)(C)CC(=O)N/N=C(\C(=O)NC1=C(Cl)C(=O)c2ccccc2C1=O)C(C#N)c1csc(-c2ccc([N+](=O)[O-])cc2)n1 (configuration not stated) | > 100 µM (inactive) | > 100 µM (inactive) |  | 80.5 µM (inactive) | > 100 µM (inactive) | > 100 µM (inactive) |  | > 100 µM (inactive) | > 100 µM (inactive) | > 100 µM (inactive) | > 100 µM (inactive) | > 100 µM (inactive) |  |  | > 100 | > 100 µM (inactive) | > 100 µM (inactive) | > 100 µM (inactive) | > 100 µM (inactive) | 
CN1C(=O)CSC1=S [3-METHYL-RHODANINE] | > 100 µM (inactive) | > 100 µM (inactive) |  | > 100 µM (inactive) | > 100 µM (inactive) | > 100 µM (inactive) |  | > 100 µM (inactive) | > 100 µM (inactive) | > 100 µM (inactive) | > 100 µM (inactive) | > 100 µM (inactive) |  |  | > 100 | > 100 µM (inactive) | > 100 µM (inactive) | > 100 µM (inactive) | > 100 µM (inactive) | 
